The target of one assay is T1, human TGR5 (Homo sapiens, UniProt Q8TDU6).
T1 construct: expressed in transfected cells
T1 sequence (Q8TDU6 1-330): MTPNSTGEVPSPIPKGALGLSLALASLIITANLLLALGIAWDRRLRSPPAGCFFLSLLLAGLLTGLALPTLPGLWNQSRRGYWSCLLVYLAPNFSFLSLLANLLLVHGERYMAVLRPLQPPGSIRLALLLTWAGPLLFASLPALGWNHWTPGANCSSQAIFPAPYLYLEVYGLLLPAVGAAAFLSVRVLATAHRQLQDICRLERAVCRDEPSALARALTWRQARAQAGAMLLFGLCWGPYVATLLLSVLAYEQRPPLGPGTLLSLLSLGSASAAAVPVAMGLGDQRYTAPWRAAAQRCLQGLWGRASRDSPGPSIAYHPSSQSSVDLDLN
The experiment in a line: Cell-based TGR5 assay, HEK293 cells stably expressing human TGR5, cAMP by HTRF. The settings on record: HEK293 cells stably expressing human TGR5, 30 min at 37 C, 0.05 nM to 10 μM, read-out: pEC50 Human TGR5 (converted). As for the experimental part:
Two primary cell based screens were performed. The first utilized HEK293 cells stably transfected to heterologously express human TGR5. The second screen used the human caecum carcinoma cell line NCI-H716 which endogenously expresses human TGR5. In both assays, cells are treated with candidate TGR5 activators and assessed for the increased intercellular levels of cAMP.
HEK293 cells were transfected with a vector that expresses a gene encoding human TGR5, and a stable cell line was isolated using drug selection following standard techniques. Cells were grown overnight at 37° C./5% CO2 prior to assay.
(§1) TGR5-mediated cAMP generation was measured using a homogeneous time resolved fluorescence (HTRF) detection method (Cisbio). Test compounds were dissolved in DMSO to a final concentration of 10 mM. Serial 3-fold dilutions of the stock solution were made in DMSO, and these solutions were diluted 100-fold into Hanks Balanced Salt Solution supplemented with 10 mM HEPES pH 7.4 and 0.5 mM isobutyl methylxanthine (IBMX). Prior to assay, culture medium was replaced with fresh medium, and test compounds diluted in HBSS/HEPES/IBMX were added to the cells and incubated at 37° C. for 30 minutes.
(§2) Following incubation with test compounds, cAMP was detected through the successive addition of cAMP labeled with the modified allophyocyanin dye d2 (cAMP-d2) and cryptate-labeled anti-cAMP in lysis buffer, and reading HTRF per the manufacturer's instructions. A standard curve was used to convert the raw HTRF data into [cAMP].
(TR-FRET usually uses a lanthanide donor and a delayed reading to cut background.)

The target in assay [1] is T2, endogenously expressed TGR5 in NCI H716 (Homo sapiens, UniProt Q8TDU6).
T2 construct: human caecum carcinoma cell line NCI-H716 which endogenously expresses human TGR5; endogenous in cells; host or cells: NCI-H716
T2 sequence (Q8TDU6 1-330): T1 sequence (Q8TDU6 1-330)
The experiment in a line: Cell-based TGR5 assay, NCI-H716 cells endogenously expressing human TGR5, cAMP by HTRF. Particulars: 30 min at 37 C, 22 nM to 50 μM, read-out: pEC50 endogenously expressed TGR5 in NCI H716 (converted). Here is the method:
Two primary cell based screens were performed. The first utilized HEK293 cells stably transfected to heterologously express human TGR5. The second screen used the human caecum carcinoma cell line NCI-H716 which endogenously expresses human TGR5. In both assays, cells are treated with candidate TGR5 activators and assessed for the increased intercellular levels of cAMP. […]
as §1, §2

For `O=C([C@@H]1CCCN1Cc1c(Cl)cccc1Cl)N1CCN(C2CC2)c2ccccc21` [Example 47, (S)(4-cyclopropyl-3,4-dihydroquinoxaline-1(2H)-yl)(1-(2,6-dichlorobenzyl)pyrrolidin-2-yl) methanone], the EC50 at human TGR5 is above 10000 nM; in assay [1], 1260 to 50100 nM. The corresponding values for `CN(C[C@H](O)[C@@H](O)[C@H](O)[C@H](O)CO)C(=O)NCCCCOc1cc(Cl)c(CNC2(C(=O)N3CCN(C4CC4)c4ccccc43)CC2)cc1Cl` [Example 186] are 126 to 1000 nM and 1260 to 50100 nM.

For `O=C(NCCCc1cc(Cl)c(CNC2(C(=O)N3CCN(C4CC4)c4ccccc43)CC2)cc1Cl)NCCOCCOCCNC(=O)NCCCc1cc(Cl)c(CNC2(C(=O)N3CCN(C4CC4)c4ccccc43)CC2)cc1Cl` [Example 212], the EC50 (at human TGR5; in assay [1]) was 1260 to 50100 nM in each case.

For `O=C(N1CCN(C2CC2)c2ccccc21)C1(OCc2cc(Cl)ccc2Cl)CCC1` [Example 41, 1-cyclopropyl-4-([1-[(2,5-dichlorophenyl)methoxy]cyclobutyl]carbonyl)-1,2,3,4-tetrahydroquinoxaline], the EC50 on human TGR5 is below 100 nM; in assay [1], 126 to 1000 nM. The corresponding values for `O=C([C@@H]1CCCN1Cc1cc(Cl)ccc1C(F)(F)F)N1CCN(C2CC2)c2ccccc21` [Example 46, (S)-(1-(5-chloro-2-(trifluoromethyl)benzyl)pyrrolidin-2-yl)(4-cyclopropyl-3,4-dihydroquinoxaline-1(2H)-yl)methanone] are below 100 nM and 126 to 1000 nM. `CC(C)N1CC(OCc2cc(Cl)ccc2Cl)(C(=O)N2CCN(C3CC3)c3ccccc32)C1` [Example 53, (4-cyclopropyl-3,4-dihydroquinoxalin-1(2H)-yl)(3-(2,5-dichlorobenzyloxy)-1-isopropylazetidin-3-yl)methanone]: the EC50 (on human TGR5; in assay [1]) was 1260 to 50100 nM in each case. For `CN(C[C@H](O)[C@@H](O)[C@H](O)[C@H](O)CO)C(=O)NCCCc1cc(Cl)c(CNC2(C(=O)N3CCN(C4CC4)c4ccccc43)CC2)cc1Cl` [Example 93, 3-(3-(2,5-dichloro-4-((1-(4-cyclopropyl-1,2,3,4-tetrahydroquinoxaline-1-carbonyl)cyclopropylamino)methyl)phenyl)propyl)-1-methyl-1-((2S,3R,4R,5R)-2,3,4,5,6-pentahydroxyhexyl)urea], the EC50 (at human TGR5; in assay [1]) was 126 to 1000 nM in each case.

In the case of `O=C(NC[C@H](O)[C@@H](O)[C@H](O)[C@H](O)CO)c1ccc(CCc2cc(Cl)c(CN3CSC[C@H]3C(=O)N3CCN(C4CC4)c4ccccc43)cc2Cl)cn1` [Example 202], the EC50 at human TGR5 was 126 to 1000 nM.

For the compound `O=C(NCCCCc1cc(Cl)c(OCC2(C(=O)N3CCN(C4CC4)c4ccccc43)CC2)cc1Cl)NC[C@H](O)[C@@H](O)[C@H](O)[C@H](O)CO` [Example 251], on human TGR5, the EC50 is 126 to 1000 nM.

As for `CN(C[C@H](O)[C@@H](O)[C@H](O)[C@H](O)CO)C(=O)c1cnc(SCc2cc(Cl)c(CN3CSC[C@H]3C(=O)N3CCN(C4CC4)c4ccccc43)cc2Cl)n1C` [Example 231], the EC50 at human TGR5 is 126 to 1000 nM. Still for that read-out and setting: with `CN(C[C@H](O)[C@@H](O)[C@H](O)[C@H](O)CO)C(=O)CCCCc1cc(Cl)c(COC2(C(=O)N3CCN(C4CC4)c4ccccc43)CC2)cc1Cl` [Example 192] the figure was below 100 nM; with `CN(C[C@H](O)C(O)[C@H](O)[C@H](O)CO)C(=O)CC[C@H](NC(=O)CCCCc1cc(Cl)c(CN2CSC[C@H]2C(=O)N2CCN(C3CC3)c3ccccc32)cc1Cl)C(=O)N(C)C[C@H](O)[C@@H](O)[C@H](O)[C@H](O)CO` (stereo partly shown) [Example 280], 126 to 1000 nM. Still for that read-out and setting: the same measure for `O=C(N1CCN(C2CC2)c2ccccc21)C1(NCc2cc(C3CC3)ccc2Cl)CC1` [Example 183, (1-(2-chloro-5-cyclopropylbenzylamino)cyclopropyl)(4-cyclopropyl-3,4-dihydroquinoxalin-1(2H)-yl)methanone]: below 100 nM; for `O=C(NC[C@H](O)[C@@H](O)[C@H](O)[C@H](O)CO)c1cnn(Cc2cc(Cl)c(CN3CSC[C@H]3C(=O)N3CCN(C4CC4)c4ccccc43)cc2Cl)c1` [Example 234]: below 100 nM; for `O=C(NC[C@@H](O)[C@H](O)[C@@H](O)[C@@H](O)CO)C(CCCc1cc(Cl)c(CN2CSC[C@H]2C(=O)N2CCN(C3CC3)c3ccccc32)cc1Cl)C(=O)NC[C@@H](O)[C@H](O)[C@@H](O)[C@@H](O)CO` [Example 174, 2-(3-(2,5-dichloro-4-(((R)-4-(4-cyclopropyl-1,2,3,4-tetrahydroquinoxaline-1-carbonyl)thiazolidin-3-yl)methyl)phenyl)propyl)-N1,N3-bis((2R,3S,4S,5S)-2,3,4,5,6-pentahydroxyhexyl)malonamide]: 1260 to 50100 nM. On to `CN(C[C@H](O)[C@@H](O)[C@H](O)[C@H](O)CO)C(=O)c1cnn(Cc2cc(Cl)c(CN3CSC[C@H]3C(=O)N3CCN(C4CC4)c4ccccc43)cc2Cl)c1` [Example 235], for which the EC50 at human TGR5 is 126 to 1000 nM. The same measure, in the same setting: with `O=C(O)CNC(=O)[C@H](CS)NC(=O)CC[C@H](NC(=O)CCCCc1cc(Cl)c(CN2CSC[C@H]2C(=O)N2CCN(C3CC3)c3ccccc32)cc1Cl)C(=O)O` [Example 222] the figure was below 100 nM; with `NCCCC[C@@H]1NC(=O)N(CCCCCc2cc(Cl)c(CN3CSC[C@H]3C(=O)N3CCN(C4CC4)c4ccccc43)cc2Cl)C1=O` [Example 273], 126 to 1000 nM; with `CN(C[C@H](O)[C@@H](O)[C@H](O)[C@H](O)CO)C(=O)CCCCc1ccc(C(F)(F)F)c(CNC2(C(=O)N3CCN(C4CC4)c4ccccc43)CC2)c1` [Example 172, 5-(3-((1-(4-cyclopropyl-1,2,3,4-tetrahydroquinoxaline-1-carbonyl)cyclopropylamino)methyl)-4-(trifluoromethyl)phenyl)-N-methyl-N-((2S,3R,4R,5R)-2,3,4,5,6-pentahydroxyhexyl)pentanamide], 1260 to 50100 nM. The same measure, in the same setting: the same measure for `O=C([C@@H]1CSCN1Cc1cc(Cl)c(CCCCCNc2nc(N(CCO)CCO)nc(N(CCO)CCO)n2)cc1Cl)N1CCN(C2CC2)c2ccccc21` [Example 173, 2-({4-[bis(2-hydroxyethyl)amino]-6-{[5-(2,5-dichloro-4-{[(4R)-4-[(4-cyclopropyl-1,2,3,4-tetrahydroquinoxalin-1-yl)carbonyl]-1,3-thiazolidin-3-yl]methyl}phenyl)pentyl]amino}-1,3,5-triazin-2-yl}(2-hydroxyethyl)amino)ethan-1-ol]: 126 to 1000 nM; for `C[C@@H](NC(=O)[C@@H](C)NC(=O)[C@@H](C)NC(=O)c1ccc(COc2cc(Cl)c(CN3CSC[C@H]3C(=O)N3CCN(C4CC4)c4ccccc43)cc2Cl)cc1)C(=O)O` [Example 207]: 126 to 1000 nM. Still for that read-out and setting: with `CN(C[C@H](O)[C@@H](O)[C@H](O)[C@H](O)CO)C(=O)CCCCc1ccc(C(F)(F)F)c(CN2CSC[C@H]2C(=O)N2CCN(C3CC3)c3ccccc32)c1` [Example 269] the figure was 1260 to 50100 nM; with `CN(C[C@H](O)[C@@H](O)[C@H](O)[C@H](O)CO)C(=O)c1cc(NCCCCCc2cc(Cl)c(CN3CSC[C@H]3C(=O)N3CCN(C4CC4)c4ccccc43)cc2Cl)nc(N(C)CCO)n1` [Example 224], 126 to 1000 nM; with `O=C(NCCOCCOCCOCCNC(=O)c1ccc(COc2cc(Cl)c(CN3CSC[C@H]3C(=O)N3CCN(C4CC4)c4ccccc43)cc2Cl)cc1)c1ccc(COc2cc(Cl)c(CN3CSC[C@@H]3C(=O)N3CCN(C4CC4)c4ccccc43)cc2Cl)cc1` [Example 190], 1260 to 50100 nM.

`CN(C[C@H](O)[C@@H](O)[C@H](O)[C@H](O)CO)C(=O)c1ccc(COc2cc(Cl)c(CN3CSC[C@H]3C(=O)N3CCN(C4CC4)c4ccccc43)cc2Cl)cc1` [Example 196]: the EC50 on human TGR5 was 126 to 1000 nM. For the compound `CN(C[C@H](O)[C@@H](O)[C@H](O)[C@H](O)CO)C(=O)CCc1cc(Cl)c(CN2C[C@@H](F)C[C@H]2C(=O)N2CCN(C3CC3)c3ccccc32)cc1Cl` [Example 266], the EC50 at human TGR5 is 1260 to 50100 nM. On the same count and under the same terms, the same measure for `O=C(CCCCc1ccc(C(F)(F)F)c(CN2CSC[C@H]2C(=O)N2CCN(C3CC3)c3ccccc32)c1)NC[C@H](O)[C@@H](O)[C@H](O)[C@H](O)CO` [Example 271]: 1260 to 50100 nM.

For the origin of these results see US20150148311A1, “NON-SYSTEMIC TGR5 AGONISTS” (Ardelyx, Inc., priority 2011, published 2015).
